According to patent US5880097A, “Tethered prodrugs” (Terrapin Techologies, Inc., priority 1996, dated 1999):
*1 amine or outer side, *2 acyl side, *3 side chain or, on linkers, in order; H or OH if unused. Where a SMILES comes first, the peptide text is derived from it. [ ]: non-standard residue; d: D form. The star is where a group is joined. γGlu = O=C(O)[C@H](CCC(=O)[*:2])N[*:1]; dPhg = N[C@@H](C(=O)O)c1ccccc1; Bn = c1ccc(C*)cc1

What was measured:
[1] = molecular target: T1, MRP system of human erythrocytes (Homo sapiens, UniProt P33527); experiment: Stimulation of basal Mg+2 stimulated ATPase activity in erythrocyte membranes; assay type: biochemical; conditions: 37° C., 30 minutes; for Km / Vmax of ATPase stimulation: average of three determinations
T1 construct: from tissue; host or cells: human erythrocytes (membranes; inside-out vesicles)
T1 sequence (P33527 whole entry): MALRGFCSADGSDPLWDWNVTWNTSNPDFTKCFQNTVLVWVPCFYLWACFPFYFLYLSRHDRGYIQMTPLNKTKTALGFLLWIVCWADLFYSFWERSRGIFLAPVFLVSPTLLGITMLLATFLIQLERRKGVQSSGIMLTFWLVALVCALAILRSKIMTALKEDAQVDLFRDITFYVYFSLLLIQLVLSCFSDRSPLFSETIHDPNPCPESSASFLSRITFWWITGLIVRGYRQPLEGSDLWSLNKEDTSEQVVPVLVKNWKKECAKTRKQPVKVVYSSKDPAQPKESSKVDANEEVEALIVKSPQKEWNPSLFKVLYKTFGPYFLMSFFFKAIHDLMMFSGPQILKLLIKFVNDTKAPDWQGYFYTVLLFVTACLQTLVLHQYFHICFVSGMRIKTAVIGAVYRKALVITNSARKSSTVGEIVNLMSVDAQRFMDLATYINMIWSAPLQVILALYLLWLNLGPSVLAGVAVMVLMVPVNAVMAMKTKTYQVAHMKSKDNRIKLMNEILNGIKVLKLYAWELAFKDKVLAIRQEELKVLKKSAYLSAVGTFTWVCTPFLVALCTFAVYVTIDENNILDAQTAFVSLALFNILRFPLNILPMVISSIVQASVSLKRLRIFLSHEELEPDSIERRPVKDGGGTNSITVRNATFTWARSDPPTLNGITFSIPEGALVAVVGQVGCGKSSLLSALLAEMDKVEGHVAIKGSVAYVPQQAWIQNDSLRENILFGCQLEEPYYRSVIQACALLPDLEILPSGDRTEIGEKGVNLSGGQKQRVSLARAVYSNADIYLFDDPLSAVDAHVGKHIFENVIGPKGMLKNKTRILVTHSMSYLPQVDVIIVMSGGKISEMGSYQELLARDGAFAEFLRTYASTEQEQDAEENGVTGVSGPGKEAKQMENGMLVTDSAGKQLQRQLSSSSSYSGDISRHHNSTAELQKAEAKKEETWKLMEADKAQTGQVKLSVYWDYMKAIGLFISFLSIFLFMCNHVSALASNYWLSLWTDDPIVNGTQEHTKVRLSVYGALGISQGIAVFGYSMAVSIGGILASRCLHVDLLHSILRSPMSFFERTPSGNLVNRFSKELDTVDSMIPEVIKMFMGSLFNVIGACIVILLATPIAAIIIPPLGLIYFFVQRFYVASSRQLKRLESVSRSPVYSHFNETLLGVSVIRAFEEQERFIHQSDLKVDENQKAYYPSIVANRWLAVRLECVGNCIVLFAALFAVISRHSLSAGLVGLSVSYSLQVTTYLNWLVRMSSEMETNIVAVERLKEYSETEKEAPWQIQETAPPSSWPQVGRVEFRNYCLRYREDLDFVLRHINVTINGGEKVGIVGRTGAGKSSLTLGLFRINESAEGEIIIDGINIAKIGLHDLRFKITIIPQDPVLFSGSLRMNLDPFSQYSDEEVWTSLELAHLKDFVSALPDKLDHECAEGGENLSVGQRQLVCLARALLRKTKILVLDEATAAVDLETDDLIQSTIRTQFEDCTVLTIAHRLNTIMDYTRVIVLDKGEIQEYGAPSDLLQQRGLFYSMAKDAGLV
Method: (§1) Two indirect measures of interaction of test compounds in the MRP system of human erythrocytes were used. The first was stimulation of basal Mg^+2 stimulated ATPase activity, the other was inhibition of transport of tritiated dinitrophenyl-S-glutathione.
In the first method, the method of Bartosz, M. et al, Biochem Mol Biol Int (1994) 34:521-529 was used. Briefly, the compounds were added to erythrocyte membranes in a medium containing 100 mM Tris HCl, […], 10 mM MgCl2, 1 mM ATP, 0.1 mM ouabain and 1 mM EGTA with an incubation at 37° C. for 30 minutes. Stimulation of ATPase activity was measured as described.

[2] = molecular target: T1, MRP system of human erythrocytes; experiment: Inhibition of uptake of tritiated DNP-glutathione conjugate by inside-out vesicles of human erythrocytes; assay type: biochemical; conditions: for inhibition of labeled conjugate (DNP-GSH) uptake: compound 1 μM, labeled DNP-GSH 5 μM, 15 minutes at 37° C., mean of three trials; for Interaction with MRP pump (reduction of transport of radiolabeled GSH analog): summary in words
Method: as §1
In the alternative method, the uptake of tritiated DNP-glutathione conjugate by inside-out vesicles of human erythrocytes was determined as described in Akerboom, T. P. M. et al, Biochim Biophys Acta (1992) 1103.:115-119. The labeled DNP-GSH concentration was 5 μM and the compounds were added at a final concentration of 1 μM; uptake of labeled DNP-GSH was measured after 15 minutes incubation at 37° C.

GST A1-1 = molecular target: T2, GST A1-1 (Homo sapiens, UniProt P08263); conditions: as described in the PCT application WO 95/09866; cited from earlier work
T2 sequence (P08263 1-222): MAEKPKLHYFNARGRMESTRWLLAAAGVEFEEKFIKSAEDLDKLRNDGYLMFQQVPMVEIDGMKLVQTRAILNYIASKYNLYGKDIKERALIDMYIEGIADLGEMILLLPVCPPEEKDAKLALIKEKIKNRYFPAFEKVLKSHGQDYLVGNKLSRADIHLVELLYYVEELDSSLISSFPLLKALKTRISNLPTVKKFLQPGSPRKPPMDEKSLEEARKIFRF

GST P1-1 = GST P1-1 (Homo sapiens, UniProt P09211); conditions: cited from earlier work
Sequence of GST P1-1 (P09211 2-210 limits assumed): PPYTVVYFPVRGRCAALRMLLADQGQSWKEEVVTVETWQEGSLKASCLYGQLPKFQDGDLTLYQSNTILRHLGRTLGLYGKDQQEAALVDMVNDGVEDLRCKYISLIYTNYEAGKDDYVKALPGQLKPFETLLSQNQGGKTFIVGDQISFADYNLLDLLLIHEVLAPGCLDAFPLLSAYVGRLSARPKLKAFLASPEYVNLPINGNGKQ

| SMILES | Km [1] [µM] | Vmax of ATPase stimulation [1] [mM/mg protein per hr] | inhibition of labeled conjugate (DNP-GSH) uptake [2] [%] | Interaction with MRP pump (reduction of transport of radiolabeled GSH analog) [2] | Stimulation of ATPase activity [1] | Susceptibility to cleavage by GST A1-1 (GST A1-1) | Susceptibility to cleavage by GST P1-1 (GST P1-1; as described in the PCT application WO 95/09866) | Isoenzyme specificity of prodrug (GST P1-1; cells having GST complements high in the P1-1 isoform) |
| --- | --- | --- | --- | --- | --- | --- | --- | --- |
| N[C@@H](CCC(=O)N[C@@H](CSCc1ccccc1)C(=O)NCCC(=O)O)C(=O)O [TER 106, γGlu-C(Bz)-βAla] | 1820 | 209.6 | 66.2 | interact with MRP so as to reduce the transport of radiolabeled GSH analog |  |  |  |  |
| N[C@@H](CCC(=O)N[C@@H](CSCc1ccccc1)C(=O)N[C@@H](C(=O)O)c1ccccc1)C(=O)O [TER 117, γGlu-C(Bz)-.o slashed.Gly] (γGlu-Cys(Bn)-[dPhg]-OH) |  |  | 0.2 | does not | did not stimulate ATPase activity |  |  |  |
| N[C@@H](CCC(=O)N[C@@H](CSCc1ccccc1)C(=O)NCC(=O)O)C(=O)O [TER 222, γGlu-C(Bz)-Gly] | 385 | 125.9 | 62.5 | interact with MRP so as to reduce the transport of radiolabeled GSH analog |  |  |  |  |
| N[C@@H](CCC(=O)N[C@@H](CS(=O)(=O)CCOP(=O)(N(CCCl)CCCl)N(CCCl)CCCl)C(=O)N[C@@H](C(=O)O)c1ccccc1)C(=O)O [TER 286] |  |  |  |  |  | particularly susceptible to cleavage | particularly susceptible to cleavage | has the desired isoenzyme specificity |
